Experimental data reported in ChEMBL document CHEMBL5154903 (J Med Chem, 2022).
pEC50: −log10 of the molar value. Activity calls are given as the source filed them. The rule behind the calls is not given here.

Experiments:
CYP1A2 = CYP1A2 (Homo sapiens, UniProt P05177); assay: Inhibition of CYP1A2 in human liver microsomes at 10 uM incubated for 10 mins by LC-MS/MS analysis relative to control; type: ADME, Microsome
HepG2 [1] = assay: Inhibition of lipid metabolism in human HepG2 cells assessed as increase in p-ACC/ACC ratio at 10 uM incubated for 24 hrs by Western blot analysis; type: functional, cell-based
Egl nine homolog 1 [2] = molecular target: T1, Egl nine homolog 1 (Homo sapiens, UniProt Q9GZT9); assay: Inhibition of PHD2 (unknown origin) at 5 uM incubated for 15 mins by competitive fluorescence polarization assay relative to control
T1 sequence (Q9GZT9 2-426 limits assumed): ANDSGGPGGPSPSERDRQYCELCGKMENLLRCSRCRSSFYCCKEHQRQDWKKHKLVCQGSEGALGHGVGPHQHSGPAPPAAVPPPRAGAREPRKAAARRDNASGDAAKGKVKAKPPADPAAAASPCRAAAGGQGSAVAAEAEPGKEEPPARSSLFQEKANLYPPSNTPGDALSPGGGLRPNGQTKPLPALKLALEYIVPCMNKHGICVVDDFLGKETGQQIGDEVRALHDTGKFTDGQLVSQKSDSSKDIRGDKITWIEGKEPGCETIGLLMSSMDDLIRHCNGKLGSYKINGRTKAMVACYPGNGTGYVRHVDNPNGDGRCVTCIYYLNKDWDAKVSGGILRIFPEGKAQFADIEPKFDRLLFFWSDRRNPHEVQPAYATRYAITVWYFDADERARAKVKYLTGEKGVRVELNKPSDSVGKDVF

Egl nine homolog 1 [3] = molecular target: T1, Egl nine homolog 1; assay: Binding affinity to PHD2 (unknown origin) assessed as change in melting temperature at 10 uM in presence of ZnSO4 by thermal shift assay
[4] = Agonist activity at human TRbeta H435 mutant expressed in Escherichia coli BL21 (DE3) cells by alphascreen assay
HepG2 [5] = assay: Inhibition of lipid metabolism in human HepG2 assessed as reduction in intracellular total cholesterol level at 1 to 10 uM incubated for 24 hrs; type: functional, cell-based; conditions: dose 1-10 µM
Hepatocyte [6] = assay: Inhibition of lipid metabolism in mouse primary hepatocytes assessed as reduction in intracellular total cholesterol level at 10 uM incubated for 24 hrs; type: functional, cell-based
Hepatocyte [7] = assay: Inhibition of lipid metabolism in mouse primary hepatocytes assessed as reduction in intracellular tryglyceride level at 10 uM incubated for 24 hrs; type: functional, cell-based
HepG2 [8] = assay: Inhibition of lipid metabolism in human HepG2 cells assessed as reduction in total lipid accumulation at 10 uM incubated for 24 hrs by oil red O staining based inverted microscopic analysis; type: functional, cell-based
HepG2 [9] = assay: Induction of mitochondrial basal respiration in human HepG2 cells assessed as increase in oxygen consumption rate at 10 uM measured after 24 hrs by Seahorse XFe96 flux analyzer; type: functional, cell-based
HepG2 [10] = assay: Induction of mitochondrial uncoupled respiration in human HepG2 cells assessed as increase in oxygen consumption rate at 10 uM measured after 24 hrs by Seahorse XFe96 flux analyzer; type: functional, cell-based
HepG2 [11] = assay: Inhibition of lipid metabolism in human HepG2 cells assessed as increase in p-AMPK/AMPK ratio at 10 uM incubated for 24 hrs by Western blot analysis; type: functional, cell-based
HepG2 [12] = assay: Inhibition of lipid metabolism in human HepG2 cells assessed as increase in CPT1 levels at 10 uM incubated for 24 hrs by Western blot analysis; type: functional, cell-based
HepG2 [13] = assay: Cytotoxicity against human HepG2 cells assessed as reduction in cell viability at 10 uM incubated for 72 to 96 hrs by Celltiter-Glo assay; type: toxicity, cell-based; conditions: hepg2, 10 µM, time 72-96 hrs
CWR22R = assay: Cytotoxicity against human 22Rv1 cells assessed as reduction in cell viability at 10 uM incubated for 72 to 96 hrs by Celltiter-Glo assay; type: toxicity, cell-based; conditions: time 72-96 hrs
MCF7 = assay: Cytotoxicity against human MCF7 cells assessed as reduction in cell viability at 10 uM incubated for 72 to 96 hrs by Celltiter-Glo assay; type: toxicity, cell-based; conditions: mcf7, 10 µM, time 72-96 hrs
MDA-MB-231 = assay: Cytotoxicity against human MDA-MB-231 cells assessed as reduction in cell viability at 10 uM incubated for 72 to 96 hrs by Celltiter-Glo assay; type: toxicity, cell-based; conditions: mda-mb-231, 10 µM, time 72-96 hrs
BXPC-3 = assay: Cytotoxicity against human BXPC-3 cells assessed as reduction in cell viability at 10 uM incubated for 72 to 96 hrs by Celltiter-Glo assay; type: toxicity, cell-based; conditions: bxpc-3, 10 µM, time 72-96 hrs
[14] = Microsomal stability in human liver microsomes assessed as intrinsic clearance at 1 uM incubated for 60 mins by HPLC-MS/MS analysis; type: ADME, Microsome; conditions: read-out: CLH
[15] = Microsomal stability in human liver microsomes assessed as half life at 1 uM incubated for 60 mins by HPLC-MS/MS analysis; type: ADME, Microsome
hERG = hERG (Homo sapiens, UniProt Q12809); assay: Inhibition of hERG expressed in HEK293 cells at 1 uM by patch-clamp assay relative to control; type: toxicity, cell-based; conditions: HEK293 cells expressing hERG
Sequence of hERG (Q12809 whole entry): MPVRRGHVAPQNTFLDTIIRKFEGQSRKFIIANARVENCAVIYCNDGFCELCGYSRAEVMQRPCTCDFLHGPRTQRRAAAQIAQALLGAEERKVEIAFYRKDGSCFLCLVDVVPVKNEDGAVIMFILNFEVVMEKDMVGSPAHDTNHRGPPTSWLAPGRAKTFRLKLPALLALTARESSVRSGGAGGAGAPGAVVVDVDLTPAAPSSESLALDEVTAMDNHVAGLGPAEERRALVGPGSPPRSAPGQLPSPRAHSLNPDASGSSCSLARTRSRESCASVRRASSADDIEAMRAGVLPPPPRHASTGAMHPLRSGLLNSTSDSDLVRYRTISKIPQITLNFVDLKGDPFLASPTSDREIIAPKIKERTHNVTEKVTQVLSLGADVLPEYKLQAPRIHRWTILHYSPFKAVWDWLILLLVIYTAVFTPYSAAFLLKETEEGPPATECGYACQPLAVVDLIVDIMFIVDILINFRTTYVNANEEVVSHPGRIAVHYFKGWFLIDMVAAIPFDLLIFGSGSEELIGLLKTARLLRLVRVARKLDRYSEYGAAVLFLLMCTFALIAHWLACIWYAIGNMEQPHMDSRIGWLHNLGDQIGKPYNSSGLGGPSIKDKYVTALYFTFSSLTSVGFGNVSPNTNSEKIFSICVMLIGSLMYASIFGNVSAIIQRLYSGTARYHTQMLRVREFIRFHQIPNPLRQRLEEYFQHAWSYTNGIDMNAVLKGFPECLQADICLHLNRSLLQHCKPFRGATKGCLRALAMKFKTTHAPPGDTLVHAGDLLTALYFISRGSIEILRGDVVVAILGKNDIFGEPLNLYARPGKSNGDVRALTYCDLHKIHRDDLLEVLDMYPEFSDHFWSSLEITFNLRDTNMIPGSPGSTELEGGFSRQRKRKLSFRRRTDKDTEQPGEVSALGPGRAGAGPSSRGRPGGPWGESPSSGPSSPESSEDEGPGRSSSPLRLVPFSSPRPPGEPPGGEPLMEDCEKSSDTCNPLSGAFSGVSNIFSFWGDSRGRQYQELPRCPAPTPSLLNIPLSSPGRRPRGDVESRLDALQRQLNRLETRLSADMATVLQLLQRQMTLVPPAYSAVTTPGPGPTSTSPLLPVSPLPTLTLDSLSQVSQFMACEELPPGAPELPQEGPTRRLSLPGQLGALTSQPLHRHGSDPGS

CYP2B6 = CYP2B6 (Homo sapiens, UniProt P20813); assay: Inhibition of CYP2B6 in human liver microsomes at 10 uM incubated for 10 mins by LC-MS/MS analysis relative to control; type: ADME, Microsome
Sequence of CYP2B6 (P20813 whole entry): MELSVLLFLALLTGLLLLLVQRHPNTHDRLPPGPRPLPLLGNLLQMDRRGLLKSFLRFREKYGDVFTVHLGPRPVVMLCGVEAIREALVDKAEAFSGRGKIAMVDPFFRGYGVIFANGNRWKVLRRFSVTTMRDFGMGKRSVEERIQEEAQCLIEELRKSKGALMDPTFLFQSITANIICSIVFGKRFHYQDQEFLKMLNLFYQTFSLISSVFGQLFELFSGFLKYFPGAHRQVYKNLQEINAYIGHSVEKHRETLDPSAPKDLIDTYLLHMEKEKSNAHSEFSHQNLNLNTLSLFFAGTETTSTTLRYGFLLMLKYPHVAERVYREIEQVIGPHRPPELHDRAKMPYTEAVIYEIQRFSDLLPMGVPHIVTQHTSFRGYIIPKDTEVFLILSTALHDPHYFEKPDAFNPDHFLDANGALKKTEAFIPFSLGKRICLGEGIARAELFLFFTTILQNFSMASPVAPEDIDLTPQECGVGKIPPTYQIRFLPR

CYP2C8 = CYP2C8 (Homo sapiens, UniProt P10632); assay: Inhibition of CYP2C8 in human liver microsomes at 10 uM incubated for 20 mins by LC-MS/MS analysis relative to control; type: ADME, Microsome
Sequence of CYP2C8 (P10632 whole entry): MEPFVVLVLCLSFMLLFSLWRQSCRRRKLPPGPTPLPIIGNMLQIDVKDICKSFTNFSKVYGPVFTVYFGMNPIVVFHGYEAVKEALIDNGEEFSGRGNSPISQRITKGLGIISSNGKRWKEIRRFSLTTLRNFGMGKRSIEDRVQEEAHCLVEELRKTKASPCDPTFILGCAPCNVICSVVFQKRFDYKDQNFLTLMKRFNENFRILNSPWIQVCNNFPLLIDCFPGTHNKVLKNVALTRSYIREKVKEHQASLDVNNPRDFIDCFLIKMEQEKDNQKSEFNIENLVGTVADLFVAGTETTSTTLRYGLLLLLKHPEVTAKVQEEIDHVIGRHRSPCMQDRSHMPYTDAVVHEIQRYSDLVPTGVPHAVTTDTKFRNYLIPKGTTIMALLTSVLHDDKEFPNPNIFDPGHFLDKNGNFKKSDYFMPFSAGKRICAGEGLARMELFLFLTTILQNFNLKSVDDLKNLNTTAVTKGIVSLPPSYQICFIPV

CYP2D6 = CYP2D6 (Homo sapiens, UniProt P10635); assay: Inhibition of CYP2D6 in human liver microsomes at 10 uM incubated for 45 mins by LC-MS/MS analysis relative to control; type: ADME, Microsome
Sequence of CYP2D6 (P10635 whole entry): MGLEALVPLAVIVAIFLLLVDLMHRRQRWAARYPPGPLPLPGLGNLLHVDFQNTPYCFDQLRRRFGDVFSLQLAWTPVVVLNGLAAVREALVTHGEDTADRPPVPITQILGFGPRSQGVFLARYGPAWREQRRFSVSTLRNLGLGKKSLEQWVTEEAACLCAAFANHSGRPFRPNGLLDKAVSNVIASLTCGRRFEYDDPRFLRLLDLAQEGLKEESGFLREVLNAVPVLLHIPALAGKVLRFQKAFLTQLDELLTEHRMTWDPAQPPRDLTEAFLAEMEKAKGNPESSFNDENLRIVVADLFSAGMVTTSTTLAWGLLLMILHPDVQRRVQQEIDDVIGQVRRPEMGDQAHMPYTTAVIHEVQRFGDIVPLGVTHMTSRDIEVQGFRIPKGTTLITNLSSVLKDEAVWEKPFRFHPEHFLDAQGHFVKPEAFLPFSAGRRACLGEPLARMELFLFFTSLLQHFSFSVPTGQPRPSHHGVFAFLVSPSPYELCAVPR

[16] = AUC (0 to infinity) in overnight fasted Sprague-Dawley rat at 5 mg/kg, iv measured upto 24 hrs; type: ADME, organism-based; parameters: dose 5 mg/kg, time < 24 hrs, route iv; conditions: in vivo
[17] = Tmax in overnight fasted Sprague-Dawley rat at 5 mg/kg, po measured upto 24 hrs; type: ADME, organism-based; conditions: in vivo
[18] = Tmax in overnight fasted Sprague-Dawley rat at 5 mg/kg, iv measured upto 24 hrs; type: ADME, organism-based; conditions: in vivo
[19] = Cmax in overnight fasted Sprague-Dawley rat at 5 mg/kg, po measured upto 24 hrs; type: ADME, organism-based; parameters: time < 24 hrs, dose 5 mg/kg, route po; conditions: in vivo
[20] = Clearance in overnight fasted Sprague-Dawley rat at 5 mg/kg, iv measured upto 24 hrs; type: ADME, organism-based; conditions: in vivo
[21] = Volume of distribution at steady state in overnight fasted Sprague-Dawley rat at 5 mg/kg, iv measured upto 24 hrs; type: ADME, organism-based; conditions: in vivo, read-out: Vdss
[22] = Half life in overnight fasted Sprague-Dawley rat at 5 mg/kg, po measured upto 24 hrs; type: ADME, organism-based; conditions: in vivo
[23] = Half life in overnight fasted Sprague-Dawley rat at 5 mg/kg, iv measured upto 24 hrs; type: ADME, organism-based; conditions: in vivo
[24] = Oral bioavailability in overnight fasted Sprague-Dawley rat at 5 mg/kg measured upto 24 hrs; type: ADME, organism-based; conditions: in vivo
[25] = molecular target: T2, Thyroid hormone receptor alpha (Homo sapiens) (UniProt P10827); conditions: filed as agonist, dose 10.0 µM
T2 sequence (whole entry): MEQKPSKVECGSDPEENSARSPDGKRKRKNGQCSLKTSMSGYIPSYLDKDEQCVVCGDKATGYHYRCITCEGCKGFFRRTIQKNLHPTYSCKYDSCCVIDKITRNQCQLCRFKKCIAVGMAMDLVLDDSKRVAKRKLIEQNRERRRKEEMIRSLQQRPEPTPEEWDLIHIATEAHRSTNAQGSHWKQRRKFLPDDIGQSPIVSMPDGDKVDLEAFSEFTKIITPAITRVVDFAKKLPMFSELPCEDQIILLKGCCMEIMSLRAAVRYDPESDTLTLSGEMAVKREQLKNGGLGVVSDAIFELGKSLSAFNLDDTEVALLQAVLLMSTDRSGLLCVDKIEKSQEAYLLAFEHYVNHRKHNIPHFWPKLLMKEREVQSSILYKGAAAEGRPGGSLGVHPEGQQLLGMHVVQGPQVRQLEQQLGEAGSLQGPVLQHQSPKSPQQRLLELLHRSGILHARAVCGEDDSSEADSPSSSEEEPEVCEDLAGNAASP

Sequence of CYP1A2 (P05177 whole entry): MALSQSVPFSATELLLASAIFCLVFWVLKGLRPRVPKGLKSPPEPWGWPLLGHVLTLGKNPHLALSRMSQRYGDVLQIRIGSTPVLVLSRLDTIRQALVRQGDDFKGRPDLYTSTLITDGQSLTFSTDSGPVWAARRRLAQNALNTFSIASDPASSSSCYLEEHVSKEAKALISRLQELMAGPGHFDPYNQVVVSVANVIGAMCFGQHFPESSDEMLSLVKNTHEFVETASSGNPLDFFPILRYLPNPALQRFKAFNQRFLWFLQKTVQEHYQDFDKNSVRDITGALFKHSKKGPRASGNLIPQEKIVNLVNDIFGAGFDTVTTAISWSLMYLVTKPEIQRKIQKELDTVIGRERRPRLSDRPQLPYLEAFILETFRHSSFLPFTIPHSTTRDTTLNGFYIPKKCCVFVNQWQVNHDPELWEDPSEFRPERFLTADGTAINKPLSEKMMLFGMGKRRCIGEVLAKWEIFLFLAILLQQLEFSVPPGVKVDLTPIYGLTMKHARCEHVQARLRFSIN

SMILES: COc1cc(F)cc(C(=O)c2cc(C)c(Oc3ccc4c(O)c(C(=O)NCC(=O)O)nc(OC)c4c3)c(C)c2)c1
- inhibition at 10 min, 10 µM (CYP1A2): 1.67%
- inhibition (HepG2 [1]): Active
- inhibition (Egl nine homolog 1 [2]): 4.8%
- ΔTm (Egl nine homolog 1 [3]): 1.5 °C
- pEC50 [4]: 5.87
- inhibition (HepG2 [5]): Active
- inhibition (Hepatocyte [6]): Active
- inhibition (Hepatocyte [7]): Active
- inhibition (HepG2 [8]): Active
- Activity (HepG2 [9]): Active
- Activity (HepG2 [10]): Active
- inhibition (HepG2 [11]): Active
- inhibition (HepG2 [12]): Active
- Activity (HepG2 [13]): Non-Toxic
- Activity (CWR22R): Non-Toxic
- Activity (MCF7): Non-Toxic
- Activity (MDA-MB-231): Non-Toxic
- Activity (BXPC-3): Non-Toxic
- CLint scaled at 1 µM [14]: < 14.5 mL/min/kg
- half-life at 1 µM [15]: > 2 h
- inhibition at 1 µM (hERG): 4.19%
- inhibition at 10 min, 10 µM (CYP2B6): 15.2%
- inhibition at 20 min, 10 µM (CYP2C8): 26.3%
- inhibition at 0.75 h, 10 µM (CYP2D6): -11.3%
- AUC(0-inf) [16]: 10900 ng·h/mL
- Tmax [17]: 1.33 h
- Tmax [18]: 4.8 min
- Cmax [19]: 1450 ng/mL
- clearance [20]: 7.83 mL/min/kg
- Vd [21]: 0.72 L/kg
- half-life [22]: 2.58 h
- half-life [23]: 1.8 h
- bioavailability [24]: 57.3%
- ΔTm [25]: 0.1 °C
